Assay results from US6900193B1, “Structural modification of 19-norprogesterone I: 17-α-substituted-11-β-substituted-4-aryl and 21-substituted 19-norpregnadienedione as new antiprogestational agents” (The United States of America as represented by the …, priority 1996, dated 2005).
Like-named read-outs stand apart in the source and are kept apart here.

Tests used:
[1] = Lability to base under reverse-phase HPLC conditions; assay type: physicochemical; conditions: MeOH/H2O/Et3N reverse-phase conditions; converts to compound 8, also at pH 7.0
Experimental: Under nitrogen, a mixture of the crude ethoxyethylidenedioxy compound (18, 0.56 g., 1.11 mmol), 0.2 M NaOAc (3 mL, […]) in methanol (30 mL) was heated to reflux. Monitoring by TLC (5% acetone/CH2Cl2) indicated a complete reaction in 3.5 hours. The methanol was removed in vacuo under a stream of nitrogen, the residue diluted with water (˜50 mL) and extracted with CH2Cl2 (3×). The organic fractions were combined, washed with H2O (2×) and brine (1×), dried over Na2SO4, filtered and concentrated in vacuo to give 0.56 g of the crude 21-ol, 17α-acetate (41) as a foam. Purification of this material via flash chromatography (7.5% acetone/CH2Cl2) followed by trituration with ether/pentane gave 0.32 g of the target compound, 21-OH, 17α-acetate as an off-white solid in […]; m.p.=205-210° C. The NMR indicated this product contains 5.3% of the 17α-OH, 21-OAc (8) isomer as a contaminant. […] This transesterification occurs at an appreciate rate even when the solvent system is buffered at pH 7.0 with phosphoric acid. The purity of the acetate mixture (8 and 41) was ascertained at >99% by normal phase HPLC analysis (Waters Associates μPorasil Silica using CH3CN/CH2Cl2 (40:60) with a flow rate of 2 mL/min at λ=302 nm). […] The presence of the 17α-OH, 21-OAc isomer (8) to the extent of 5.3% could be detected by the appearance of two doublets, one at 4.88 and the other at 5.11, both with J=18.3 Hz.

[2] = in vivo
[3] = tested on: follicular development, ovulation, endometrial maturation; assay: Single oral dose in human subjects (unpublished data); assay type: in vivo
implantation [4] = conditions: rat; cited from earlier work
[5] = tested on: early stages of pregnancy; conditions: administered during the early stages of pregnancy; cited from earlier work
implantation [6] = conditions: guinea pig; cited from earlier work
Cushing's syndrome = conditions: cited from earlier work

Q: For `CC(=O)O[C@]1(C(=O)CO)CCC2C3CCC4=CC(=O)CCC4=C3C(c3ccc(N(C)C)cc3)C[C@@]21C` (stereo partly drawn) [Compound 41, 17α-acetoxy-21-hydroxy-11β-[4-(N,N-dimethylamino)phenyl]-19-norpregna-4,9-diene-3,20-dione], which stability to base [1] is on record?
A: extremely labile to base

Q: For `CC(=O)O[C@]1(C(C)=O)CC[C@H]2[C@@H]3CCC4=CC(=O)CCC4=C3[C@@H](c3ccc(N(C)C)cc3)C[C@@]21C` [Compound 69B, 17α-acetoxy-11β-(4-N,N-dimethylaminophenyl)-19-norpregna-4,9-diene-3,20-dione, reference compound], which “blood levels following oral administration” value [2] is on record?
A: Higher blood levels

Q: What about the “effect in human subjects following a single oral dose” value [3] of the same molecule?
A: affect both follicular development and ovulation as well as endometrial maturation

Q: With `CC#C[C@]1(O)CC[C@H]2[C@@H]3CCC4=CC(=O)CCC4=C3[C@@H](c3ccc(N(C)C)cc3)C[C@@]21C` [mifepristone] as the molecule, how does the prevention of implantation (implantation [4]) read?
A: prevent implantation

Q: What about the antiprogestational/contragestative effect [5] of the same molecule?
A: effective antiprogestational/contragestative agent

Q: What about the prevention of implantation (implantation [6]) of the same molecule?
A: prevent implantation

Q: What about the “treatment of Cushing's syndrome” value (Cushing's syndrome; Nieman, et al. 1985) of the same molecule?
A: successfully used

Q: And the antiglucocorticoid activity (Cushing's syndrome; in vivo)?
A: very significant antiglucocorticoid activity
